From patent US6225284A, “Somatostatin peptides” (Novartis AG, priority 1995, dated 2001)
Numbered stars: 1 amine (or outer) side, 2 acyl side, 3 side chain; on linkers, the order of the positions; unused ones are H or OH. Square brackets hold non-standard residues; d marks the D form. Side chains are listed from the residue outwards. Peptide text beside a SMILES is read from it. * marks the point of attachment. Ethylenediamine = C(CN[*:2])N[*:1]; cisHyp = O=C(O)[C@@H]1C[C@H](O)CN1; Hyp = O=C(O)[C@@H]1C[C@@H](O)CN1; NHCH2CH2NMe2 = CN(C)CCN*; CO = O=C([*:1])[*:2]; Bn = c1ccc(C*)cc1

Assays:
[1] = biological target: hSST-1 (Homo sapiens, UniProt P30872); experiment: competition binding assay, membranes of CHO cells expressing hSST-1, [125I-Tyr3]-octreotide; settings: competition with [125I-Tyr3]-octreotide; read-out: IC50 (nM) hSSTR-1
Sequence of hSST-1 (P30872 whole entry): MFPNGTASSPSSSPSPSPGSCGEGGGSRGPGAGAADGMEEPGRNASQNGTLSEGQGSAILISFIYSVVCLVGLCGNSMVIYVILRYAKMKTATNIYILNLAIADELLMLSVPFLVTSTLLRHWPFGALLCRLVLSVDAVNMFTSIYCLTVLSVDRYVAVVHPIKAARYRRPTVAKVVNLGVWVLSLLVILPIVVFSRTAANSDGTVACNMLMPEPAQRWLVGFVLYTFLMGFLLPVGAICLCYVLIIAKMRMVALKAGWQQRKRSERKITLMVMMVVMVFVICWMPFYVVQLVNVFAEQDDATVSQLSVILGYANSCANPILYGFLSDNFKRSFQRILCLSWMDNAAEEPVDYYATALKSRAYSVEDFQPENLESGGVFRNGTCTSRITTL
Protocol: (§1) The binding assays may be carried out as disclosed hereunder using membranes prepared from hSST-1, hSST-2, hSST-3, hSST-4 or hSST-5 selective cell lines, e.g. CHO cells stably expressing hSST-1, hSST-2, hSST-3, hSST-4 or hSST-5.
(§2) Brain or pituitary tissue is used in which hSST are visualized with e.g. in situ hybridization and/or receptor autoradiography. Membranes are prepared according to known methods, e.g. as disclosed by J C. Reubi et al. in J. Clin. Endocrinol. Metab. 1987, 65, 1127-1137. Membranes prepared from hSST selective cell lines, e.g. CHO cells stably expressing hSST-1 or hSST-2 or hSST-3 or hSST-4 or hSST-5 are incubated in triplicate in a total volume of 300 μl at 22° C. for 30 min with increasing concentrations of [^125 I-Tyr^3 ]-octreotide in 10 mmol/l Hepes buffer (pH 7.6) containing 0.5% BSA. The incubation is terminated by rapid filtration through Whatman GF/B glass fiber filters, which are then washed four times each with 5 ml ice cold 10 mmol/l Tris/150 mmol/l NaCl. The filters are counted in a LKB counter at 78% counting efficiency. Specific binding is total binding minus non-specific binding in the presence of 1 μmol/l somatostatin-14. The experiments are carried out in triplicate. The affinity constant (KD) and number of binding sites are calculated from Scatchard plots of the data.
(§3) The COMPOUNDS OF THE INVENTION, e.g. as indicated above, respectively, have in the above binding assays towards hsST-1, hSST-2, hSST-3, hSST-4 and/or hSST-5 an IC50 in the nMolar range, preferably an IC50 of from 0.1 to 10 nM (IC50 =concentration for half-maximal inhibition in a competition binding assay using [^125 I-Tyr^3 ]-octreotide the same radioligand as indicated above).

[2] = biological target: hSST-2 (Homo sapiens, UniProt P30874); experiment: competition binding assay, membranes of CHO cells expressing hSST-2, [125I-Tyr3]-octreotide; settings: competition with [125I-Tyr3]-octreotide; read-out: IC50 (nM) hSSTR-2
Sequence of hSST-2 (P30874 whole entry): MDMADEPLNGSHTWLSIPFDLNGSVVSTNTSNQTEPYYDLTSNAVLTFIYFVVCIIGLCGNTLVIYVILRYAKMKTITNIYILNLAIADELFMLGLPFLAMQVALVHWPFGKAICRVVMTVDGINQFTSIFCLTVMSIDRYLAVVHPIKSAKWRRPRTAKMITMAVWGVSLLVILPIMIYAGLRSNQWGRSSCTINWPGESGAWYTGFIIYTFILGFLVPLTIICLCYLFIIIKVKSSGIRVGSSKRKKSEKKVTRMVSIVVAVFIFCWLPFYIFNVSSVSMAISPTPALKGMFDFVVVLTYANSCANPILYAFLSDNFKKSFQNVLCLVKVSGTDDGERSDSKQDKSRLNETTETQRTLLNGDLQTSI
Protocol: as §1, §2, §3

[3] = biological target: hSST-3 (Homo sapiens, UniProt P32745); experiment: competition binding assay, membranes of CHO cells expressing hSST-3, [125I-Tyr3]-octreotide; settings: competition with [125I-Tyr3]-octreotide; read-out: IC50 (nM) hSSTR-3
Sequence of hSST-3 (P32745 whole entry): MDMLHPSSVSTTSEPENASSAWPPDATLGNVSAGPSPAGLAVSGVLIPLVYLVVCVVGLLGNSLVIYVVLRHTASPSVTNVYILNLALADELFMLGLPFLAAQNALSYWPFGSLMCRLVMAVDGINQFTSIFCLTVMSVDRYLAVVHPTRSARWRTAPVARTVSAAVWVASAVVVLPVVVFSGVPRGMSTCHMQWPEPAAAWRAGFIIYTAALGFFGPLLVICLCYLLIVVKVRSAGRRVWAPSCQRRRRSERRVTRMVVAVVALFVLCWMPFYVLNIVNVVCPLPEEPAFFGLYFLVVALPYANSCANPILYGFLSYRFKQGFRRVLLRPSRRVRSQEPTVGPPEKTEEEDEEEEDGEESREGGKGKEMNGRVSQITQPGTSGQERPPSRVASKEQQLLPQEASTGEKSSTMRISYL
Protocol: as §1, §2, §3

[4] = biological target: hSST-4 (Homo sapiens, UniProt P31391); experiment: competition binding assay, membranes of CHO cells expressing hSST-4, [125I-Tyr3]-octreotide; settings: competition with [125I-Tyr3]-octreotide; read-out: IC50 (nM) hSSTR-4
Sequence of hSST-4 (P31391 whole entry): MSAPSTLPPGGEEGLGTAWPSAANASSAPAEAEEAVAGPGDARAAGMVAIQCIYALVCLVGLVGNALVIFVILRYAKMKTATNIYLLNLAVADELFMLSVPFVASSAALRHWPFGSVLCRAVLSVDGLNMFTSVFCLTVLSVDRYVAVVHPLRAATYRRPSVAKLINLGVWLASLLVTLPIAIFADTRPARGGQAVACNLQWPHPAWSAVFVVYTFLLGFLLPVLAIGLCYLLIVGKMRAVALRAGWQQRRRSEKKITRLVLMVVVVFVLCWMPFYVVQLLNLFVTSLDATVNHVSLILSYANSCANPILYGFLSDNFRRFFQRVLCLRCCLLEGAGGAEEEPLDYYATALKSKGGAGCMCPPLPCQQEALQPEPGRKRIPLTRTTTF

[5] = biological target: hSST-5 (Homo sapiens, UniProt P35346); experiment: competition binding assay, membranes of CHO cells expressing hSST-5, [125I-Tyr3]-octreotide; settings: competition with [125I-Tyr3]-octreotide; read-out: IC50 (nM) hSSTR-5
Sequence of hSST-5 (P35346 whole entry): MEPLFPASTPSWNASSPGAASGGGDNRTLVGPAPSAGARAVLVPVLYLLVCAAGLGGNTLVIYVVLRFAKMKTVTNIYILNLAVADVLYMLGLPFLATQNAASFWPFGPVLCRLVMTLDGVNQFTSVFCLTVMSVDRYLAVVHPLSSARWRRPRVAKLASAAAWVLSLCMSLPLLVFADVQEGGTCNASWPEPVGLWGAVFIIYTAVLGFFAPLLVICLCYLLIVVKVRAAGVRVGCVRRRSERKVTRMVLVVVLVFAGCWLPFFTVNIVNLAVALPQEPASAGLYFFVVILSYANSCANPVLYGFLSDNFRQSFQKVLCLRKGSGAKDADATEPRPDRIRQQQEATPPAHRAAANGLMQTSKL
Protocol: as §1, §2, §3

[6] = tested on: GH release from cultured pituitary cells; experiment: inhibition of GH release in vitro from cultured pituitary cells; format: cell-based; settings: rat pituitary cells, 3×10^-10 M growth hormone releasing factor, two to four hours
Protocol: Furthermore, the COMPOUNDS OF THE INVENTION show GH-release inhibiting activity as indicated by the inhibition of GH release in vitro from cultured pituitary cells. Anterior pituitary glands from adult male rats are cut into small pieces and dispersed using 0.1% trypsin in 20 mM HEPES buffer. The dispersed cells are cultured for four days in MEM (Gibco) supplemented with 5% fetal calf serum, 5% horse serum, 1 mM NaHCO3, 2.5 nM dexamethasone, 2.5 mg/ml insulin and 20 U/ml Pen/Strep. On the day of the experiment the attached cells are washed two times with Krebs-Ringer medium buffered with 20 mM HEPES and supplemented with 5 mM glucose and 0.2% BSA. Subsequently the cells are incubated for two to four hours with the test compound in the presence of 3×10^-10 M growth hormone releasing factor. The amount of growth hormone released into the medium is measured by RIA.

[7] = tested on: AR42J rat pancreatic tumor cell line; experiment: AR42J proliferation test; format: cell-based; settings: exposure 2 to 5 days; ± SE; read-out: IC50, inhibition of proliferation of AR42J tumor cells
Protocol: The AR42J rat pancreatic tumor cell line is derived from an azaserine-induced exocrine pancreatic tumor (Jessop and Hay, 1980). The absence of mycoplasma is regularly checked using bisbenzimide staining and the GenProbe hybridization assay (San Diego, Calif.). Cultures are propagated in DMEM supplemented with 10% fetal calf serum (FCS) at 5% CO2. Cells are grown in the absence of antibiotics or antifungal agents. Subconfluent AR42J cells are trypsinized, diluted in DMEM +2.5% FCS and seeded in uncoated 96-well plates. After a 48-hr incubation period (Day 0), the number of cells in a separate control plate is determined both by counting cells in a Coulter counter and by the SRB calorimetric assay. The cells are then exposed to the compound to be tested for 2 to 5 days at various concentrations and then counted.

IC50 [1]	IC50 [2]	IC50 [3]	IC50 [5]	Compound	IC50 [4]	IC50 [6]	IC50 [7]
63 nM	0.94 nM	1.9 nM	0.35 nM	NCCCC[C@@H]1NC(=O)[C@@H](Cc2c[nH]c3ccccc23)NC(=O)[C@H](Cc2ccccc2)NC(=O)[C@@H]2C[C@@H](O)CN2C(=O)[C@H](Cc2ccccc2)NC(=O)[C@H](Cc2ccc(OCc3ccccc3)cc2)NC1=O [Example 1, Cyclo [HyPro-Phe-DTrp-Lys-Tyr(Bzl)-Phe]] (cyclo(F[Hyp]F[dW]KY(Bn)))	320 nM		
0.5 nM	0.8 nM	3.9 nM	2.9 nM	NCCCC[C@@H]1NC(=O)[C@@H](Cc2c[nH]c3ccccc23)NC(=O)[C@H](Cc2ccccc2)NC(=O)[C@@H]2C[C@@H](OC(=O)NCCN)CN2C(=O)[C@H](Cc2ccccc2)NC(=O)[C@H](COCc2ccccc2)NC1=O [Example 31] (cyclo(F[Hyp]([CO-Ethylenediamine])F[dW]KS(Bn)))			
3.8 nM	0.13 nM	57 nM	2 nM	NCCCC[C@@H]1NC(=O)[C@@H](Cc2c[nH]c3ccccc23)NC(=O)[C@H](Cc2ccccc2)NC(=O)[C@@H]2C[C@H](OC(=O)NCCN)CN2C(=O)[C@H](Cc2ccccc2)NC(=O)[C@H](COCc2ccccc2)NC1=O [Example 32] (cyclo(F[cisHyp]([CO-Ethylenediamine])F[dW]KS(Bn)))			
0.6 nM	1.3 nM	2.4 nM	4.5 nM	CN(C)CCNC(=O)O[C@@H]1C[C@H]2C(=O)N[C@@H](Cc3ccccc3)C(=O)N[C@H](Cc3c[nH]c4ccccc34)C(=O)N[C@@H](CCCCN)C(=O)N[C@@H](COCc3ccccc3)C(=O)N[C@@H](Cc3ccccc3)C(=O)N2C1 [Example 36] (cyclo(F[Hyp]([CO-NHCH2CH2NMe2])F[dW]KS(Bn)))			

Compound	IC50 [1]	IC50 [2]	IC50 [3]	IC50 [5]	IC50 [4]	IC50 [6]	IC50 [7]
NCCCC[C@@H]1NC(=O)[C@@H](Cc2c[nH]c3ccccc23)NC(=O)[C@H](Cc2ccccc2)NC(=O)[C@@H]2C[C@@H](OC(=O)NCCN)CN2C(=O)[C@H](Cc2ccccc2)NC(=O)[C@H](Cc2ccc(OCc3ccccc3)cc2)NC1=O [Example 2, Cyclo[{4-(NH2 --C2 H4 --NH--CO--O--)Pro}-Phe-DTrp-Lys-Tyr(Bzl)-Phe]] (cyclo(F[Hyp]([CO-Ethylenediamine])F[dW]KY(Bn)))	4.6 nM	2.3 nM	0.93 nM	0.46 nM	490 nM	0.4 nM	0.7 ± 0.3 nM
